Assay results from patent US7902354B2, “Lapachone compounds and methods of use thereof” (ArQule, Inc., priority 2006, dated 2011).

Assays:
Type in all cases: cell-based
[1] = system: A549 human lung carcinoma cells; assay: MTS cell viability assay, A549 human lung carcinoma cells; settings: A549, 4 h compound incubation, MTS, read-out: IC50 Values, Cancerous Cells, Lung A549
[2] = system: DLD-1 human colon carcinoma cells; assay: MTS cell viability assay, DLD-1 human colon carcinoma cells; settings: DLD-1, 4 h compound incubation, MTS, read-out: IC50 Values, Cancerous Cells, Colon DLD-1
[3] = system: DU-145 human prostate carcinoma cells; assay: MTS cell viability assay, DU-145 human prostate carcinoma cells; settings: DU-145, 4 h compound incubation, MTS, read-out: IC50 Values, Cancerous Cells, Prostate DU-145
[4] = system: K-562 human leukemia cells; assay: MTS cell viability assay, K-562 human leukemia cells; settings: K562, K-562, 4 h compound incubation, MTS, read-out: IC50 Values, Cancerous Cells, Leukemia K-562
[5] = system: PACA-2 human pancreatic carcinoma cells; assay: MTS cell viability assay, PACA-2 human pancreatic carcinoma cells; settings: PACA-2, 4 h compound incubation, MTS, read-out: IC50 Values, Cancerous Cells, Pancreas PACA-2
[6] = system: NCM-460 normal colon epithelial cells; assay: MTS cell viability assay, NCM-460 normal colon epithelial cells; settings: for IC50: Homo sapiens, NCM460, NCM-460, 4 h compound incubation, MTS, read-out: IC50 Values, Normal Cells, Colon NCM-460; for Fold Selectivity (NCM-460/DLD1): ratio of IC50 NCM-460 / DLD1

SMILES	IC50 [1] [µM]	IC50 [2] [µM]	IC50 [3] [µM]	IC50 [4] [µM]	IC50 [5] [µM]	IC50 [6] [µM]	Fold Selectivity (NCM-460/DLD1) [6]
O=C1C(=O)c2ccccc2C2=C1SCC1(CCN(C/C=C/c3ccccc3)CC1)O2 [Compound 139, 1′-[(2E)-3-phenylprop-2-en-1-yl]spiro[naphtho[1.2-b][1,4]oxathiine-2,4′-piperidine]-5,6-dione]	27.8	4.32	4.42	4.8	4.17	19.5	4.5
O=C1C(=O)c2ccccc2C2=C1SCC1(CCN(CCOc3ccccc3)CC1)O2 [Compound 140, 1′-(2-phenoxyethyl)spiro[naphtho[1,2-b][1,4]oxathiine-2,4′-piperidine]-5,6-dione]	21.5	3.37	4.2	4.26	3.93	12.2	3.6
O=C1C(=O)c2ccccc2C2=C1SCC1(CCN(Cc3ccc(F)c(Cl)c3)CC1)O2 [Compound 142, 1′-(3-chloro-4-fluorobenzyl)spiro[naphtho[1,2-b][1,4]oxathiine-2,4′-piperidine]-5,6-dione]	44.2	4.25	6.93	8.72	10.5	15.1	3.6
C=CCCN1CCC2(CC1)CSC1=C(O2)c2ccccc2C(=O)C1=O [Compound 143, 1′-but-3-en-1-ylspiro[naphtho[1,2-b][1,4]oxathiine-2,4′-piperidine]-5,6-dione]	7.39	2.14	4.26	3.29	2.5	6.39	3.0
O=C1C(=O)c2ccccc2C2=C1SCC1(CCN(CCCOc3ccccc3)CC1)O2 [Compound 144, 1′-(3-phenoxypropyl)spiro[naphtho[1,2-b][1,4]oxathiine-2,4′-piperidine]-5,6-dione]	8.19	2.17	4.91	4.32	2.82	9.9	4.6
O=C1C(=O)c2ccccc2C2=C1SCC1(CCN(CCOc3ccc(Cl)cc3)CC1)O2 [Compound 145, 1′-[2-(4-chlorophenoxy)ethyl]spiro[naphtho[1,2-b][1,4]oxathiine-2,4′-piperidine]-5,6-dione]	5.55	3.8	4.03	7.87	2.74	21	5.5
CC(C)(C)c1ccc(OCC(O)CN2CCC3(CC2)CSC2=C(O3)c3ccccc3C(=O)C2=O)cc1 (stereo not shown) [Compound 157, 1′-[3-(4-tert-butylphenoxy)-2-hydroxypropyl]spiro[naphtho[1,2-b][1,4]oxathiine-2,4′-piperidine]-5,6-dione]	8.03	3.63	2.26	7.6	2.08	28.2	7.8
O=C1C(=O)c2ccccc2C2=C1SCC1(CCN(CC(O)COc3ccccc3)CC1)O2 (stereo not shown) [Compound 158, 1′-(2-hydroxy-3-phenoxypropyl)spiro[naphtho[1,2-b][1,4]oxathiine-2,4′-piperidine]-5,6-dione]	5.6	1.48	1.71	1.44	1.32	4.91	3.3
C=CC(C)(O)CN1CCC2(CC1)CSC1=C(O2)c2ccccc2C(=O)C1=O (stereo not shown) [Compound 159, 1′-(2-hydroxy-2-methylbut-3-en-1-yl)spiro[naphtho[1,2-b][1,4]oxathiine-2,4′-piperidine]-5,6-dione]	14.3	4.47	5.03	4.13	4.03	10.2	2.3
O=C1C(=O)c2ccccc2C2=C1SCC1(CCN(CC(O)CC(F)(F)F)CC1)O2 (stereo not shown) [Compound 160, 1′-(4,4,4-trifluoro-2-hydroxybutyl)spiro[naphtho[1,2-b][1,4]oxathiine-2,4′-piperidine]-5,6-dione]	6.72	1.69	3.92	1.53	1.55	5.56	3.3
CCCCC(O)CN1CCC2(CC1)CSC1=C(O2)c2ccccc2C(=O)C1=O (stereo not shown) [Compound 162, 1′-(2-hydroxyhexyl)spiro[naphtho[2-b][1,4]oxathiine-2,4′-piperidine]-5,6-dione]	6.95	1.36	2.77	1.5	1.45	2.8	2.1
O=C1C(=O)c2ccccc2C2=C1SCC1(CCN(CC(O)c3ccccc3)CC1)O2 (stereo not shown) [Compound 167, 1′-(2-hydroxy-2-phenylethyl)spiro[naphtho[1,2-b][1,4]oxathiine-2,4′-piperidine]-5,6-dione]	7.56	1.35	2.76	1.53	1.26	3.68	2.7
O=C1C(=O)c2ccccc2C2=C1SCC1(CCN(CC(O)COCc3ccccc3)CC1)O2 (stereo not shown) [Compound 171, 1′-[3-(benzyloxy)-2-hydroxypropyl]spiro[naphtho[12-b][1,4]oxathiine-2,4′-piperidine]-5,6-dione]	6.55	1.34	3.22	3.6	1.46	9.69	7.2
O=C1C(=O)c2ccccc2C2=C1SCC1(CCN(CC(O)COc3ccccc3Cl)CC1)O2 (stereo not shown) [Compound 172, 1′-[3-(2-chlorophenoxy)-2-hydroxypropyl]spiro[naphtho[1,2-b][1,4]oxathiine-2,4′-piperidine]-5,6-dione]	6.16	1.36	1.55	1.48	1.09	5.53	4.1
Cc1ccccc1OCC(O)CN1CCC2(CC1)CSC1=C(O2)c2ccccc2C(=O)C1=O (stereo not shown) [Compound 173, 1′-[2-hydroxy-3-(2-methylphenoxy)propyl]spiro[naphtho[1,2-b][1,4]oxathiine-2,4′-piperidine]-5,6-dione]	7	1.49	2.92	4.1	1.42	10.3	6.9

More lines, in order of falling IC50 [1], values ahead:

IC50 [1] [µM]	IC50 [2] [µM]	IC50 [3] [µM]	IC50 [4] [µM]	IC50 [5] [µM]	SMILES	IC50 [6] [µM]	Fold Selectivity (NCM-460/DLD1) [6]
38.2	4.53	5.77	12.1	4.1	Cc1ccc(CN2CCC3(CC2)CSC2=C(O3)c3ccccc3C(=O)C2=O)cc1F [Compound 146, 1′-(3-fluoro-4-methylbenzyl)spiro[naphtho[1,2-b][1,4]oxathiine-2,4′-piperidine]-5,6-dione]	26.4	5.8
13.6	3.7	4.16	2.26	1.47	O=C1C(=O)c2ccccc2C2=C1SCC1(CCN(CC(O)CN3CCOCC3)CC1)O2 (stereo not shown) [Compound 166, 1′-(2-hydroxy-3-morpholin-4-ylpropyl)spiro[naphtho[1,2-b][1,4]oxathiine-2,4′-piperidine]-5,6-dione]	8.69	2.3
9.02	1.52	2.88	3.12	1.42	O=C1C(=O)c2ccccc2C2=C1SCC1(CCN(CC(O)COc3ccc(F)cc3)CC1)O2 (stereo not shown) [Compound 164, 1′-[3-(4-fluorophenoxy)-2-hydroxypropyl]spiro[naphtho[1,2-b][1,4]oxathiine-2,4′-piperidine]-5,6-dione]	9.74	6.4
7.8	1.43	2.52	1.43	1.48	O=C1C(=O)c2ccccc2C2=C1SCC1(CCN(C3CCCC3)CC1)O2 [Compound 138, 1′-cyclopentylspiro[naphtho[1,2-b][1,4]oxathiine-2,4′-piperidine]-5,6-dione]	3.55	2.5
6.73	1.92	3.08	2.31	1.44	O=C1C(=O)c2ccccc2C2=C1SCC1(CCN(CC(O)COCc3ccco3)CC1)O2 (stereo not shown) [Compound 165, 1′-[3-(2-furylmethoxy)-2-hydroxypropyl]spiro[naphtho[2-b][1,4]oxathiine-2,4′-piperidine]-5,6-dione]	4.71	2.5
5.01	1.95	4.01	2.39	2.44	O=C1C(=O)c2ccccc2C2=C1SCC1(CCN(CCCC(F)(F)F)CC1)O2 [Compound 141, 1′-(4,4,4-trifluorobutyl)spiro[naphtho[1,2-b][1,4]oxathiine-2,4′-piperidine]-5,6-dione]	8.13	4.2
4.69	1.49	1.42	5.31	1.37	CCc1ccc(OCC(O)CN2CCC3(CC2)CSC2=C(O3)c3ccccc3C(=O)C2=O)cc1 (stereo not shown) [Compound 170, 1′-[3-(4-ethylphenoxy)-2-hydroxypropyl]spiro[naphtho[1,2-b][1,4]oxathiine-2,4′-piperidine]-5,6-dione]	14	9.4
